Test results taken from article PMC8950173 (Pharmaceuticals, 2022).

Columns and labels:
[1] = biological target: T1, human recombinant HDAC6 (Homo sapiens, UniProt Q9UBN7); test: Inhibition assay HDAC6 (fluorogenic substrate ZMAL); type: biochemical; conditions: for IC50: 15 min preincubation at 25 °C
T1 construct: purchased BPS Bioscience Inc. 50006
T1 sequence (Q9UBN7 1-1215): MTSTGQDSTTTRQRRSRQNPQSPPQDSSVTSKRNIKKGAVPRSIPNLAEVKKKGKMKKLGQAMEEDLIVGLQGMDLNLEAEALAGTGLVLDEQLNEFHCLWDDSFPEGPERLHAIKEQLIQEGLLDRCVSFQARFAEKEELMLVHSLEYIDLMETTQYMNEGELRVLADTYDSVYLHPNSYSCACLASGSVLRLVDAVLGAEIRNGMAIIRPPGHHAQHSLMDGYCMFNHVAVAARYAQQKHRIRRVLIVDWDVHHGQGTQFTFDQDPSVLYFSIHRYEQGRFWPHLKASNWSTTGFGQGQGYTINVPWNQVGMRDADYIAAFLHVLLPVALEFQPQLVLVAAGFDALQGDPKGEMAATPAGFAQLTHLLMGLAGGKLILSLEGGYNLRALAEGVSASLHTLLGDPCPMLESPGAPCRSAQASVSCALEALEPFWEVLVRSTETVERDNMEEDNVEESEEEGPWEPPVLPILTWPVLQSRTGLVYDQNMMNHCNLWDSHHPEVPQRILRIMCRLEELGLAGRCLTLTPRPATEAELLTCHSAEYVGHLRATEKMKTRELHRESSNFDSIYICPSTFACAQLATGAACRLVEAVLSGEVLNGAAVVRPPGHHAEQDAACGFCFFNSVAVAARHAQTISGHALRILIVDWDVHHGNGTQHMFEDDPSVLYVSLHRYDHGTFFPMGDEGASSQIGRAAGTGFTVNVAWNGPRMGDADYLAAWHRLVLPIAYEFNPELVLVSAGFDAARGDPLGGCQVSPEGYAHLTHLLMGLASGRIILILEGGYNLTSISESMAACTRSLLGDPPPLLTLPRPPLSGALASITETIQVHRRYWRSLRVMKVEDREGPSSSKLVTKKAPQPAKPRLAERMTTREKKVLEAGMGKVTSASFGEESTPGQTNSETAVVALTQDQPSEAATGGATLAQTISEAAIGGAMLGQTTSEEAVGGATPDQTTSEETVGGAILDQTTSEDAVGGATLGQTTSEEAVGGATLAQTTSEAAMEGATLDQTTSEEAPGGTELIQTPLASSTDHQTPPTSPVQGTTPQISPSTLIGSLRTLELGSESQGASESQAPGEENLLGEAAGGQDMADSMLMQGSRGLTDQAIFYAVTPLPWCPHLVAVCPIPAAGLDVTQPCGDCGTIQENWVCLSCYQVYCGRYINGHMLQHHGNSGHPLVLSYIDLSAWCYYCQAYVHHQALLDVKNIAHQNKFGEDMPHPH
Protocol: (§1) In vitro inhibitory activities against HDAC1−3 and HDAC6 were measured as previously published with minor modifications. […] Subsequently, 50 µL trypsin solution (0.4 mg/mL trypsin in buffer: 50 mM Tris−HCl, pH = 8.0, 100 mM NaCl) was added, followed by additional 30 min of incubation at 37 °C. […] All compounds were tested at least twice in duplicates.

[2] = biological target: T2, human recombinant HDAC1 (Homo sapiens, UniProt Q13547); test: Inhibition assay HDAC1 (fluorogenic substrate ZMAL); type: biochemical; conditions: 60 min preincubation at 25 °C
T2 construct: purchased BPS Bioscience Inc. 50051
Protocol: as §1

[3] = biological target: human recombinant HDAC3/NcoR2 (Homo sapiens, UniProt O15379); test: Inhibition assay HDAC3 (fluorogenic substrate ZMAL); type: biochemical; conditions: for IC50: 60 min preincubation at 25 °C; for specificity ratio (HDAC1/HDAC3): HDAC1 over HDAC3, from IC50 values
Protocol: as §1

[4] = biological target: T3, human recombinant HDAC2 (Homo sapiens, UniProt Q92769); test: Inhibition assay HDAC2 (fluorogenic substrate ZMAL); type: biochemical; conditions: 60 min preincubation at 25 °C
T3 construct: purchased BPS Bioscience Inc. 50052
Protocol: as §1

[5] = tested on: rat F98 glioma cells; test: MTS assay, cancer cell viability, F98; type: cell-based; conditions: 72 h, mean ± SD, n = 3, read-out: Cell Viability [%] (Vehicle = 100%) F98
Protocol: (§2) F98 cells (obtained from ATCC® Washington, DC, USA) and U251-MG cells (obtained from Drs A. Feldmann and N. Metwasi, Department of Radioimmunology, HZDR, Rossendorf, Germany) were cultivated in Dulbecco’s Modified Eagle Medium (DMEM, Gibco, Invitrogen, Dun Laoghaire, Ireland) supplemented with 10% heat inactivated fetal bovine serum (Gibco, Invitrogen, Dun Laoghaire, Ireland), and 100 U/mL penicillin and 100 µg/mL streptomycin (Gibco, Invitrogen, Dun Laoghaire, Ireland) in a humidified atmosphere in a CO2 incubator (37 °C, 5% CO2).
(§3) Proliferation of F98 and U251-MG cells was determined using a commercially available MTS assay (CellTiter 96® AQueous One Solution Cell Proliferation Assay, Promega GmbH, Walldorf, Germany). Briefly, the cells were seeded into 96-well plates at a density of 5 × 10^4 cells/well 24 h prior to the experiment at 37 °C in a humidified, 5% CO2 atmosphere. On the day of the experiment, the cell culture medium was replaced by fresh medium supplemented with either test compounds (working concentration: 50 µM; prepared by 1:200 dilution from a 10 mM stock solution in 100% DMSO with cell culture medium) or vehicle (0.5% DMSO in cell culture medium), and the cells were incubated for 72 h. Subsequently, 20 µL of the MTS solution was added per well and the plate was incubated in the CO2 incubator for another 2 h. Afterwards, the absorbance was measured at a wavelength of 490 nm using a microplate reader (Model 680 microplate reader, Bio-Rad Laboratories GmbH, Feldkirchen, Germany).

[6] = tested on: human U251-MG glioblastoma cells; test: MTS assay, cancer cell viability, U251-MG; type: cell-based; conditions: U-251, 72 h, mean ± SD, n = 3, read-out: Cell Viability [%] (Vehicle = 100%) U251-MG
Protocol: as §2, §3

[7] = Solubility observed in cell culture medium; type: physicochemical; conditions: 50 µM in cell culture medium supplemented with 0.5% DMSO

T3 sequence (Q92769 whole entry): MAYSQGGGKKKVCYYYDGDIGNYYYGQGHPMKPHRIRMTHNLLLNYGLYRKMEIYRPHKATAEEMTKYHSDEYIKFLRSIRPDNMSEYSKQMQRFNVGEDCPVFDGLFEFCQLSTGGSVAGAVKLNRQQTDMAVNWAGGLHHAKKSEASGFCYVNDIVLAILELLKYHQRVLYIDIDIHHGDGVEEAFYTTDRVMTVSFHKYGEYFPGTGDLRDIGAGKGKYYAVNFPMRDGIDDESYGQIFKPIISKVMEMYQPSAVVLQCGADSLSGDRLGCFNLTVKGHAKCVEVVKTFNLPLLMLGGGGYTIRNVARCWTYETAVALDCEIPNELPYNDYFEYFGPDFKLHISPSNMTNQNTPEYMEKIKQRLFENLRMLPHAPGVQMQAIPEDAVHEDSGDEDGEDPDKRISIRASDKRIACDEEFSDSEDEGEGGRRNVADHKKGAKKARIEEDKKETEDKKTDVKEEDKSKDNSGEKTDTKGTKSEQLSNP
T2 sequence (Q13547 whole entry): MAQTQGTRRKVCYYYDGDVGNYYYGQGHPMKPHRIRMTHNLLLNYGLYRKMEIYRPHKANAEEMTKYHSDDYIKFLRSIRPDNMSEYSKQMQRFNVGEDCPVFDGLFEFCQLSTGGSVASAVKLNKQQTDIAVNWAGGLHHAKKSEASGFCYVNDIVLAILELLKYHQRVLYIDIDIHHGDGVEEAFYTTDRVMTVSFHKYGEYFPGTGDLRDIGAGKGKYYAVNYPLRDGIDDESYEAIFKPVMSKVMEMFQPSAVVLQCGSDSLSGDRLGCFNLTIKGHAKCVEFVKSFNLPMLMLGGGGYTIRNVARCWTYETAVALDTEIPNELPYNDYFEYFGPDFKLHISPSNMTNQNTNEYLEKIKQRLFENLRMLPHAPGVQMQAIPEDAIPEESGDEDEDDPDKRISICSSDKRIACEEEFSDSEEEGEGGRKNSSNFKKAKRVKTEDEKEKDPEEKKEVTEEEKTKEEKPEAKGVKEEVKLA
Sequence of human recombinant HDAC3/NcoR2 (O15379 whole entry): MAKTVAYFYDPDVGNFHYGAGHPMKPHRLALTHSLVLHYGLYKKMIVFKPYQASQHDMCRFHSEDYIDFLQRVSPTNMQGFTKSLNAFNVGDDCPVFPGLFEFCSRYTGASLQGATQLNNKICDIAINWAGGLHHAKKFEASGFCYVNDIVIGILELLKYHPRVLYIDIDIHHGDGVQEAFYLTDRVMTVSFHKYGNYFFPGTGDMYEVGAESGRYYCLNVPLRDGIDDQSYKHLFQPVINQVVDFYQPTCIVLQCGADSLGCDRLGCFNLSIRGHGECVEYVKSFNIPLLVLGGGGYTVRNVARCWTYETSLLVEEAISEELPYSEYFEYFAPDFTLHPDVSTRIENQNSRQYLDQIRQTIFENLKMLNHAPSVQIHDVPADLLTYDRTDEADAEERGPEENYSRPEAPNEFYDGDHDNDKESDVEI
Sequence of human recombinant HDAC3/NcoR2 (Q9Y618 395-489 partner limits assumed): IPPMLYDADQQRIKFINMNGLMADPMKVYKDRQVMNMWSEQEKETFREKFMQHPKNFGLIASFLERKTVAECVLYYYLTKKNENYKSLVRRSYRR

Compound	IC50 [1] [nM]	IC50 [2] [nM]	IC50 [3] [nM]	IC50 [4] [nM]	viability at 50 µM [5] [%]	viability at 50 µM [6] [%]	specificity ratio (HDAC1/HDAC3) [3]	solubility in cell culture medium [7]	specificity ratio HDAC1 over HDAC6 ([1]; from IC50 values)
CC(F)C(=O)NCc1ccc(C(=O)Nc2cc(-c3ccoc3)ccc2N)cc1 (stereo not drawn) [BA9, N-[2-amino-5-(furan-3-yl)phenyl]-4-[(2-fluoropropanamido)methyl]benzamide]	> 10000	19.8 ± 0.4	2400 ± 250	56.3 ± 0.2	–	–	–	–	–
O=C(CCCCCCC(=O)Nc1ccccc1)NO [vorinostat]	–	–	–	–	24.4 ± 7.9	36.9 ± 7.6	–	–	–
CC(F)C(=O)NCc1ccc(C(=O)Nc2cc(-c3cccs3)ccc2N)cc1 (stereo not drawn) [BA1, N-[2-amino-5-(thiophen-2-yl)phenyl]-4-[(2-fluoropropanamido)methyl]benzamide]	> 10000	4.8 ± 0.4	2300 ± 190	64.3 ± 4.5	–	–	479	–	–
CC(F)C(=O)Nc1ccc(C(=O)Nc2cc(-c3ccco3)ccc2N)cc1 (stereo not drawn) [BA8, N-[2-amino-5-(furan-2-yl)phenyl]-4-(2-fluoropropanamido)benzamide]	> 10000	24.2 ± 2.9	4200 ± 80	82.1 ± 0.1	–	–	–	–	–
CC(F)C(=O)NCc1ccc(C(=O)Nc2cc(-c3ccc(F)cc3)ccc2N)cc1 (stereo not drawn) [BA5, N-(4-amino-4′-fluoro-[1,1′-biphenyl]-3-yl)-4-[(2-fluoropropanamido)methyl]benzamide]	> 10000	10.2 ± 0.4	1300 ± 70	32.2 ± 5.5	–	–	–	–	–
CC(F)C(=O)Nc1ccc(C(=O)Nc2cc(-c3ccsc3)ccc2N)cc1 (stereo not drawn) [BA4, N-[2-amino-5-(thiophen-3-yl)phenyl]-4-(2-fluoropropanamido)benzamide]	> 10000	11.2 ± 2.4	> 3330	38.1 ± 4.5	–	–	–	–	–
CC(F)C(=O)Nc1ccc(C(=O)Nc2cc(-c3cccs3)ccc2N)cc1 (stereo not drawn) [BA2, N-[2-amino-5-(thiophen-2-yl)phenyl]-4-(2-fluoropropanamido)benzamide]	> 10000	8.3 ± 1.4	> 1110	33.5 ± 1.5	–	–	–	–	–
CC(F)C(=O)NCc1ccc(C(=O)Nc2cc(-c3ccco3)ccc2N)cc1 (stereo not drawn) [BA7, N-[2-amino-5-(furan-2-yl)phenyl]-4-[(2-fluoropropanamido)methyl]benzamide]	> 10000	20.4 ± 0.3	3800 ± 180	69.1 ± 1.2	–	–	–	–	–
CC(F)C(=O)Nc1ccc(C(=O)Nc2cc(-c3ccc(F)cc3)ccc2N)cc1 (stereo not drawn) [BA6, N-(4-amino-4′-fluoro-[1,1′-biphenyl]-3-yl)-4-(2-fluoropropanamido)benzamide]	> 10000	14.9 ± 0.4	> 1110	56.6 ± 0.6	–	–	> 74	–	–
Nc1ccccc1NC(=O)c1ccc(CNC(=O)OCc2cccnc2)cc1 [entinostat]	–	–	–	–	27.5 ± 4.4	55 ± 11.2	–	–	–
CC(F)C(=O)Nc1ccc(C(=O)Nc2cc(-c3ccoc3)ccc2N)cc1 (stereo not drawn) [BA10, N-[2-amino-5-(furan-3-yl)phenyl]-4-(2-fluoropropanamido)benzamide]	> 10000	17 ± 1.2	3300 ± 480	47.7 ± 2.9	–	–	–	–	–
CC(F)C(=O)NCc1ccc(C(=O)Nc2cc(-c3ccsc3)ccc2N)cc1 (stereo not drawn) [BA3, N-[2-amino-5-(thiophen-3-yl)phenyl]-4-[(2-fluoropropanamido)methyl]benzamide]	> 10000	4.8 ± 0.6	> 1110	39.9 ± 3.2	–	–	> 230	slight precipitation	> 2080
CC(=O)Nc1ccc(C(=O)Nc2ccccc2N)cc1 [tacedinaline]	–	–	–	–	27.1 ± 3	28.5 ± 3	–	–	–
